Assay results taken from patent publication US12622891B2, “AMP-activated protein kinase activator” (KYOTO PHARMACEUTICAL UNIVERSITY, priority 2021, dated 2026).

Legend:
[1] = system: human colon cancer SW48 cells; assay: Proliferation suppressive action on human colon cancer SW48 cells (Trypan blue viable cell count); type: cell-based; conditions: 500 nM, 3 days; FIG. 4
Protocol: Human colon cancer SW48 cells were cultured in a 5% CO2 incubator at 37° C. using DMEM (FUJIFILM Wako Pure Chemical Corporation, Japan) supplemented with 10% bovine fetal serum (FBS, HyClone, GE Healthcare Life Sciences, Buckinghamshire, England) and 1% penicillin/streptomycin (FUJIFILM Wako Pure Chemical Corporation, respectively 100 units/mL, 100 μg/mL). SW48 cells were suspended in trypsin (Lonza, Walkersville, MD, USA), and 1×10^5 cells were seeded in a 6-well dish (TPP, Trasadingen, Switzerland). After 24 hr, a group of the compounds of the present invention (compound (I-4), compound (I-5), and compound (I-10)) diluted with a culture medium to a final concentration of 500 nM was allowed to act for 3 days. Proliferation of these cells was evaluated using Trypan blue (FUJIFILM Wako Pure Chemical Corporation, Japan) staining method and counting the number of viable cells using a Countess II automatic cell counter (Thermo Fisher Scientific, Waltham, MA).

phosphorylated AMPK [2] = assay: Phosphorylated AMPK increasing action on human colon cancer SW48 cells (Western blot, phospho-AMPKα Thr172); type: cell-based; conditions: 100 nM, 2 days; FIG. 6
Protocol: Human colon cancer SW48 cells were cultured in a 5% CO2 incubator at 37° C. using DMEM (FUJIFILM Wako Pure Chemical Corporation, Japan) supplemented with 10% bovine fetal serum (FBS, HyClone, GE Healthcare Life Sciences, Buckinghamshire, England) and 1% penicillin/streptomycin (FUJIFILM Wako Pure Chemical Corporation, respectively 100 units/mL, 100 μg/mL). SW48 cells were suspended in trypsin (Lonza, Walkersville, MD, USA), and 1×10^5 cells were seeded in a 6-well dish (TPP, Trasadingen, Switzerland). After 24 hr, the cells were treated with the compounds of the present invention (compound (I-4), compound (I-5), and compound (I-10)) diluted with a culture medium to a final concentration of 100 nM and allowed to act for 2 days. Cellular proteins were dissolved in 1% SDS buffer supplemented with a protease inhibitor cocktail mix (Nacalai Tesque, Kyoto, Japan), and SDS-PAGE was performed. After transferring to PVDF membrane (Millipore, Billerica, MA, USA), Western blot analysis was performed using anti-phospho-AMPKα (Thr172, 1:1000, #2535; CST) antibody. GAPDH protein was analyzed as a loading control.

[3] = system: human glioblastoma cell line U251; assay: Proliferation of human glioblastoma U251 cells, compound alone or combined with temozolomide (viable cell count, CI/isobologram); type: cell-based; conditions: temozolomide 12.5, 25, 50 μM with compound 25, 50, 100 nM, 6 days; CI < 0.9 = synergistic; FIG. 2
Protocol: According to the method described in a literature (Matsumura K, et al. BMC Cancer (2016) 16(1):748.), human glioblastoma cell line U251 was cultured in a 5% CO2 incubator at 37° C. using DMEM (FUJIFILM Wako Pure Chemical Corporation, Japan) supplemented with 10% bovine fetal serum (FBS, HyClone, GE Healthcare Life Sciences, Buckinghamshire, England) and 1% penicillin/streptomycin (FUJIFILM Wako Pure Chemical Corporation, respectively 100 units/mL, 100 μg/mL). Temozolomide (Sigma Chemical, St. Louis, MO, USA) which is used as a standard drug for the treatment of glioblastoma was dissolved at 200 mM using dimethyl sulfoxide (Nacalai Tesque, Kyoto, Japan) as a solvent. […] Proliferation of these cells was evaluated using Trypan blue (FUJIFILM Wako Pure Chemical Corporation, Japan) staining method and counting the number of viable cells using a Countess II automatic cell counter (Thermo Fisher Scientific, Waltham, MA). Combination index (CI) values of temozolomide and the compound of the present invention were calculated using CalcuSyn 2.11 software (Biosoft, Cambridge, UK), and Isobologram analysis was performed. The CI value of less than 0.9 was determined to be a synergistic effect, the CI value of 0.9 or more and less than 1.1 was determined to be an additive effect, and the CI value of 1.1 or more was determined to be an antagonistic effect.

[4] = system: glioblastoma transplanted tumor; assay: In vivo antitumor effect in a mouse glioblastoma transplantation model (luciferase imaging); conditions: C57BL6J mouse, 10 mg/kg intraperitoneally three times a week, three weeks after transplantation; FIG. 3
Protocol: According to the method described in a literature (Tanigawa S, et al. Cancer Gene Therapy (2021). https://doi.org/10.1038/s41417-020-00282-5), murine glioblastoma stem cells introduced with the Luciferase gene were established, and cultured as neurosphere cells in a 5% CO2 incubator at 37° C. using Neurobasal medium supplemented with B27 and N2 supplements (Gibco/Thermo Fisher Scientific, Waltham, MA, USA) and 10 ng/mL of EGF and bFGF (R&D Systems, Minneapolis, MN, USA). The neurospheres were made into a single cell suspension by Accutase (Innovative Cell Technologies, San Diego, CA, USA) treatment, and 1×10^3 cells suspended in 2 μL of PBS were transplanted into the cerebrum of a 6-week-old male C57BL6J mouse (Oriental Bioservice, Kyoto, Japan) fixed on a Stereotaxic Instrument (51730D; Stoelting Co., Wood Dale, IL, USA) using a 30-gauge Hamilton syringe with autoinjector (Legato130; KD Scientific, Holliston, MA, USA). […] Three weeks after cell transplantation, D-luciferin was administered intraperitoneally at a dose of 150 mg/kg and in vivo tumor size was evaluated using the IVIS Lumina XR imaging system (Summit Pharmaceuticals International, Tokyo, Japan).

[5] = system: AMP/ATP ratio of human colon cancer SW48 cells; assay: AMP/ATP ratio increasing action on human colon cancer SW48 cells (AMP Glo / Cell Titer Glo); type: cell-based; conditions: 500 nM and 1 μM, 2 days; FIG. 5
Protocol: Human colon cancer SW48 cells were cultured in a 5% CO2 incubator at 37° C. using DMEM (FUJIFILM Wako Pure Chemical Corporation, Japan) supplemented with 10% bovine fetal serum (FBS, HyClone, GE Healthcare Life Sciences, Buckinghamshire, England) and 1% penicillin/streptomycin (FUJIFILM Wako Pure Chemical Corporation, respectively 100 units/mL, 100 μg/mL). SW48 cells were suspended in trypsin (Lonza, Walkersville, MD, USA), and 1×10^5 cells were seeded in a 6-well dish (TPP, Trasadingen, Switzerland). After 24 hr, the cells were treated with the compound of the present invention (compound (I-5)) diluted with a culture medium to final concentrations of 500 nM and 1 μM and allowed to act for 2 days. Intracellular AMP was measured with the AMP Glo assay kit (Promega, Madison, WI, USA), and intracellular ATP was measured with the Cell Titer Glo Luminescent Cell Viability Assay Kit (Promega, Madison, WI, USA) using a SYNERGY HT (BioTek Instruments, Inc. Winooski, VT, USA), and the AMP/ATP ratio was calculated.

[6] = system: human colon cancer SW48 transplanted tumors; assay: In vivo antitumor effect in a human colon cancer SW48 cell subcutaneous transplantation model; parameters: species or system mouse; conditions: CB17 SCID mice, 20 mg/kg intraperitoneally every day from 4 days after transplantation, 3.5 weeks; FIG. 7(A),(B)
Protocol: (§1) According to the method described in a literature (Ii H, et al. ChemMedChem. (2018) 13(2):155-163), human colon cancer SW48 cells were cultured in a 5% CO2 incubator at 37° C. using DMEM (FUJIFILM Wako Pure Chemical Corporation, Japan) supplemented with 10% bovine fetal serum (FBS, HyClone, GE Healthcare Life Sciences, Buckinghamshire, England) and 1% penicillin/streptomycin (FUJIFILM Wako Pure Chemical Corporation, respectively 100 units/mL, 100 μg/mL). SW48 cells were suspended in trypsin (Lonza, Walkersville, MD, USA), and 3×10^6 cells were suspended in 100 μL of PBS/Matrigel (1:1, Corning, Corning, NY, USA), and subcutaneously injected into 6-week-old male or female CB17 SCID mice (Japan Clea, Osaka, Japan) to create a subcutaneous transplantation tumor model. The compound of the present invention was dissolved in 10% ethanol (FUJIFILM Wako Pure Chemical Corporation, Japan), 10% dimethyl sulfoxide (Nacalai Tesque, Kyoto, Japan), 10% Cremophor EL (Sigma Chemical, St. Louis, MO, USA), and 70% saline (Nacalai Tesque, Kyoto, Japan), and administered intraperitoneally at a dose of 20 mg/kg every day from 4 days after transplantation. The major diameter and minor diameter were measured twice a week using calipers, and the tumor volume was calculated by 0.5× major diameter×minor diameter^2. 3.5 Weeks after cell transplantation, the tumor was removed and the weight was measured. […]

[7] = Body weight change on daily intraperitoneal administration in the SW48 transplantation model; type: in vivo, mouse; conditions: CB17 SCID mice, 20 mg/kg daily intraperitoneally for 3.5 weeks; FIG. 7(C)
Protocol: as §1

phosphorylated AMPK [8] = assay: Phosphorylated AMPK increasing action on human lung cancer A549 cells (Western blot, phospho-AMPKα Thr172); type: cell-based; conditions: 100 nM to 1 μM, 3 days; FIG. 9
Protocol: Human lung cancer A549 cells were cultured in a 5% CO2 incubator at 37° C. using DMEM (FUJIFILM Wako Pure Chemical Corporation, Japan) supplemented with 10% bovine fetal serum (FBS, HyClone, GE Healthcare Life Sciences, Buckinghamshire, England) and 1% penicillin/streptomycin (FUJIFILM Wako Pure Chemical Corporation, respectively 100 units/mL, 100 μg/mL). A549 cells were suspended in trypsin (Lonza, Walkersville, MD, USA), and 1×10^5 cells were seeded in a 6-well dish (TPP, Trasadingen, Switzerland). After 24 hr, they were treated with the compound of the present invention diluted in a culture medium to final concentrations of 100 nM to 1 μM and allowed to act for 3 days. Cellular proteins were dissolved in 1% SDS buffer supplemented with a protease inhibitor cocktail mix (Nacalai Tesque, Kyoto, Japan), and SDS-PAGE was performed. After transferring to PVDF membrane (Millipore, Billerica, MA, USA), Western blot analysis was performed using anti-phospho-AMPKα (Thr172, 1:1000, #2535; CST) antibody. GAPDH protein was analyzed as a loading control.

SMILES | proliferation of human colon cancer SW48 cells (number of viable cells) [1] | phosphorylated AMPK in SW48 cells (phosphorylated AMPK [2]) | combination effect with temozolomide on proliferation of U251 cells (combination index, isobologram) [3] | in vivo tumor size of transplanted glioblastoma [4] | AMP/ATP ratio of SW48 cells [5] | tumor volume and tumor mass of SW48 subcutaneous transplanted tumors [6] | body weight change [7] | phosphorylated AMPK in A549 cells (phosphorylated AMPK [8])
CCCCCCCCCOCCOCCOCCOCCCCCCCCCCCCNC(=O)c1ccsc1 [I-4, N-(13,16,19,22-tetraoxahentriacontan-1-yl)thiophene-3-carboxamide] | proliferation suppressive action | phosphorylated AMPK increasing action |  |  |  |  |  | 
CCCCCCCCCCOCCOCCOCCOCCCCCCCCCCCCNC(=O)c1ccsc1 [I-5, N-(13,16,19,22-tetraoxadotriacontan-1-yl)thiophene-3-carboxamide] | proliferation suppressive action | phosphorylated AMPK increasing action | synergistically potentiates the proliferation suppressive ability of temozolomide | suppresses proliferation of glioblastoma transplanted tumor | has action to increase the AMP/ATP ratio | suppresses proliferation of human colon cancer SW48 transplanted tumors | no significant body weight change | 
COCCOCCOCCOCCCCCCCCCCCCNC(=O)c1csc(C)c1 [I-10, N-(13,16,19,22-tetraoxatricosan-1-yl)-5-methylthiophene-3-carboxamide] | proliferation suppressive action | phosphorylated AMPK increasing action |  |  |  |  |  | 
CCCCCCCCCCOCCOCCOCCOCCOCCCCCCCCCNC(=O)c1ccsc1 [I-16, N-(10,13,16,19,22-pentaoxadotriacontan-1-yl)thiophene-3-carboxamide] |  |  |  |  |  |  |  | phosphorylated AMPK increasing action
